Measurements taken from PMC10076643, “Design, synthesis and anticancer activity studies of 3-(coumarin-3-yl)-acrolein derivatives: Evidenced by integrating network pharmacology and vitro assay” (Frontiers in Pharmacology, 2023).

How the values were obtained:
[1] = tested on: Hela (human cervical carcinoma cell line); assay: MTT antiproliferative assay, Hela; type: cell-based; conditions: 72 h
From the text: All the synthesized compounds were screened for in vitro antiproliferative activity against four human cancer cell lines A549 (human lung cancer cell line), KB (human oral epidermoid carcinoma cell line), Hela (human cervical carcinoma cell line), MCF-7 (human breast cancer cell line) and two human normal cell lines HUVEC (human umbilical vein endothelial cell) and LO2 (human normal hepatocytes) through the 3-(4,5-dimethyl-2-thiazolyl)-2,5-diphenyl-2-H-tetrazolium bromide (MTT) assay.
Non-small-cell lung cancer (A549), oral epidermoid carcinoma (KB), cervical cancer (Hela) and breast cancer (MCF-7) cells were purchased from the American Type Culture Collection (ATCC, America). Human umbilical vein endothelial cell (HUVEC) and human normal hepatocytes (LO2) cells were provided by Guangzhou Medical University (Guangzhou, China). A549 and KB cells were cultured in RMPI-1640 medium (Gibco, America). Hela, MCF-7 and LO2 cells were cultured in DMEM medium (Gibco, America). HUVEC cells were cultured in Ham’s F-12K medium (Gibco, America). All the mediums were supplemented with 10% fetal bovine serum (FBS) (BI, State of Israel), 100 U/mL penicillin and 100 μg/mL streptomycin (Gibco, America), and all the cells were incubated in a sterile incubator at 37°C in an environment of 5% CO2. The tested compounds were dissolved in dimethyl sulfoxide (DMSO) at a concentration of 10 mM, and then diluted into different concentration of solutions by culture medium. The final concentration of DMSO was <0.01% (v/v) in all drug treatment groups to avoid the toxicity in the biological system. Untreated cells were used as a blank control and 5-fluorouracil treated cells were used as a positive control.
The incubated tumor cells were planted into 96-well plates (4×10^3 cells/well). After 24 h, the cells were adherent to the wall and treated with the compound 6e in different concentrations (0.78, 1.56, 3.12, 6.25, 12.50, 25.00, and 50.00 μM) for 72 h. Afterwards, the medium was supplemented with 10 µL MTT solution. After 4 h, the culture medium was removed and 100 µL DMSO was added. The absorbance was determined at the wavelength of 540 nm and 655 nm using a microplate reader (BioTek Epoch, America). The results were collected from three independent experiments. The IC50 was then calculated by using GraphPad Prism Software (version 7.0) and non-linear regression (curve fit).

[2] = tested on: KB cells; assay: Annexin V-FITC/PI dual staining apoptosis assay (flow cytometry); type: cell-based, human
Procedure: To investigate whether compound 6e could induce cell apoptosis, KB cells were treated with compound 6e in different concentrations for 48 h and the Annexin V-FITC/PI dual staining assay was carried out flow cytometry.
KB cells (5×10^5 cells/well) were seeded into six-well plates. […] Afterwards, cells were collected, washed twice with cold PBS. Then the treated cells were resuspended with 400 μL of 1X Annexin V binding buffer and mixed with 5 μL FITC and 5 μL PI (Annexin V-FITC Apoptosis Analysis Kit, Tianjing), and incubated at room temperature in the dark for 5 min. After the incubation, the samples were immediately analyzed by a Beckman Flow Cytometer.

[3] = tested on: caspase-3 in KB cells; assay: Western blot, caspase-3; type: cell-based, human; conditions: 24 h
From the text: (§1) Based on the results of network pharmacology, the key proteins related to PI3K/AKT pathway were detected by Western blotting to explore the antitumor mechanism of compound 6e. […] Such an inconsistency might be due to a compensatory increase in PI3K level after the reduction of AKT phosphorylation level. Additionally, the active-caspase 3 protein, anti-apoptosis protein Bcl-2 and pro-apoptosis protein Bax were further analyzed. Caspase-3 normally exists in the cytoplasm as zymogen. During the early stage of apoptosis, caspase-3 (32 KD) is cleaved to the active 17-kD caspase-3 fragment, which is responsible for morphological and biochemical changes in apoptosis. Bcl-2 and Bax are the […] located on the mitochondrial membrane and capable of controlling the MMP (ΔΨm) and the activation of caspase cascade.
(§2) A total of 4 × 10^5 KB cells were seeded into 6-well and grown for overnight. Then the cells adherent to the wall were treated with compound 6e in different concentrations (0, 0.40, 0.80, 1.60 μM) for 24 h. After that, cells were collected, SDS lysate, 100X protease inhibitor and 50X phosphorylation inhibitor were added in a certain proportion to lyse the cells. The protein content was determined by BCA reagent (Beyotime, China) according to the standard curve. […]

[4] = tested on: Bcl-2 in KB cells; assay: Western blot, Bcl-2; type: cell-based, human; conditions: 0.40 μM, 24 h
From the text: as §1, §2

O=CC=C(Cl)c1cc2ccc(OCc3ccccc3)cc2oc1=O [Compound 6e, 3-(7-(Benzyloxy)-2-oxo-2H-chromen-3-yl)-3-chloroacrylaldehyde]
IC50 [1]: 1820 ± 220 nM
apoptotic rate in the early stage (Q1-LR) ([2]; 0.5 IC50, 48 h): 6.99%
late apoptotic rate (Q1-UR) ([2]; 0.5 IC50, 48 h): 5.55%
total apoptosis rate ([2]; 0.5 IC50, 48 h): 12.54%
apoptotic rate in the early stage (Q1-LR) ([2]; 2 IC50, 48 h): 13.11%
late apoptotic rate (Q1-UR) ([2]; 2 IC50, 48 h): 7.22%
total apoptosis rate ([2]; 2 IC50, 48 h): 20.33%
apoptotic rate in the early stage (Q1-LR) ([2]; IC50, 48 h): 6.69%
late apoptotic rate (Q1-UR) ([2]; IC50, 48 h): 7.30%
total apoptosis rate ([2]; IC50, 48 h): 13.99%
ratio of cleaved caspase-3 to caspase-3 ([3]; 0.80 μM): increased
expression of the cleaved 17-kD caspase-3 ([3]; 1.60 μM): upregulated
expression of Bcl-2 compared with the control group [4]: visibly decreased
proportion of Bcl-2 to Bax [4]: decrease
